Tests used:
[1] = molecular target: T1, USP5-Cav3.2 interaction (recombinant USP5 binding to immobilized Cav3.2 domain III-IV linker peptides) (Homo sapiens, UniProt P45974); assay: Cav3.2-USP5 ELISA assay; details: for Percent Inhibition: Cav3.2-USP5 ELISA of Example 1, concentration not given
T1 sequence (P45974 1-858): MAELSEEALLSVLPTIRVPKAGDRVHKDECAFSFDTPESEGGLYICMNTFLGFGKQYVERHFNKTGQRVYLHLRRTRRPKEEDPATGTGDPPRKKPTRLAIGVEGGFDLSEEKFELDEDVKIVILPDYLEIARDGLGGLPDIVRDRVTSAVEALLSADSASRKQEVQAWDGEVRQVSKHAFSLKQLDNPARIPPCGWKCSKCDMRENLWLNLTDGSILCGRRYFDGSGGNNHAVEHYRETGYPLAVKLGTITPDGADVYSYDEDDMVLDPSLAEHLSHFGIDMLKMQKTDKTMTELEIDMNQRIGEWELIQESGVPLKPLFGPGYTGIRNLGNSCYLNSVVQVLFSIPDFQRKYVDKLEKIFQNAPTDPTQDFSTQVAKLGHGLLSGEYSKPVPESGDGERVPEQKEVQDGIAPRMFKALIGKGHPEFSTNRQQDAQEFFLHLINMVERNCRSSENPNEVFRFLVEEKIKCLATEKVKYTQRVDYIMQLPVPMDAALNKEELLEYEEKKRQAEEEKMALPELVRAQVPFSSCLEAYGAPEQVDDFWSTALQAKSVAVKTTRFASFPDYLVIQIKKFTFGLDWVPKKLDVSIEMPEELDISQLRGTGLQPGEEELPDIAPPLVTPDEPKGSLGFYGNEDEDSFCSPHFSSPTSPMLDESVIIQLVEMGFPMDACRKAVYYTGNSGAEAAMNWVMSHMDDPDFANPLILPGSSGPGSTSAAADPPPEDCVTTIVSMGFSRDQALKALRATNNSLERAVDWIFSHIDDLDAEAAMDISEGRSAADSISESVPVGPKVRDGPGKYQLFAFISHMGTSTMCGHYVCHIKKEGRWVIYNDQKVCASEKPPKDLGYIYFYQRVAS
Description: FIG. 3 is a schematic of the high throughput ELISA assay used to screen the exemplary compound of the applications. Here the Cav3.2 III-1V linker is immobilized and then recombinant USP5 is allowed to bind. Binding is detected via antibodies conjugated to horseradish peroxidase for a fluorescent readout. Compounds are applied and a reduction in fluorescence is indicative of a disruption of USP5-Cav3.2 interactions.
A high throughput ELISA assay was used to screen the exemplary compounds of the applications (FIG. 3). The ELISA is based on the binding of recombinant USP5 to immobilized Cav3.2 domain […] linker peptides. Binding interactions were detected using USP5 antibodies, and a secondary antibody conjugated to horseradish peroxidase, leading to a fluorescence readout. The ELISA was converted into a high through-put format 384 well plate. Multiple compound libraries were screened for small organic molecules that disrupt the USP5—Cav3.2 interaction. A number of hits were identified at the standard screening concentration, and the dose dependence of hits was investigated. Select actives were subjected to a secondary biochemical assays based on co-immunoprecipitations of USP5 and Cav3.2 from mouse neuronal tissue.
In the ELISA assay from Example 1, compound II-1 was added at varying concentrations, and the ability of II-1 to inhibit the USP5-Cav3.2 interaction examined. The percentage of inhibition as a function of drug concentration could be fitted using the Hill equation.

[2] = tested on: diabetic, visceral, inflammatory and neuropathic pain; details: hits of an initial CDRD active compound library screen; cited from earlier work
[3] = tested on: recombinant USP5 (long or short splice variant); assay: USP5 deubiquitinase (DUB) activity assay; assay type: biochemical; details: recombinant long or short form of USP5, fluorescence over time (FIG. 8)
Experimental: FIG. 8 examines the effect of exemplary compound II-1 on in vitro deubiqutinase activity of USP5. Here recombinant USP5 (either the long or the short splice variant) is incubated with a ubiquitinated substrate, and deubiquitination is measured via a fluorescence readout as a function of time.
To rule out the possibility that exemplary compound II-1 might mediate its analgesic effects by altering the deubiquitinase (DUB) activity of USPS rather than by disrupting the interactions with the channel, a DUB assays was conducted (FIG. 8). Here, a ubiquitinated substrate (ubiquitin-rhodamine110-glycine) is incubated with recombinant long or short forms of USP5, and deubiquitination of the substrate as a function of time is measured via a fluorescence readout. Both the long form and the short form of USP5 lead to deubiquitination of the substrate, as evident from an increasing and plateauing fluorescence signal (528 nm emission in response to 485 nm excitation). The commercially available DUB inhibitor Degrasyn which is used as a positive control prevents this.

[4] = tested on: formalin induced nocifensive responses; assay: Formalin-induced pain assay; assay type: in vivo; details: mice, intrathecal delivery, both phases (FIG. 5)
Experimental: Formalin was injected into the hindpaw of a mouse, and the time that the mouse spent licking and biting its paw was determined. There are two phases of these nocifensive behavioral responses—phase I occurs immediately after formalin injection and reflects an acute response, phase II occurs approximately thirty minutes after formalin injection and reflects inflammatory pain. II-1 inhibited the duration of both phases in a dose dependent manner. […] Formalin injection into the hindpaw mediates nocifensive responses (paw licking, biting). There is an initial phase that reflects an acute responses to formalin injection, followed by a quiescent period and a second phase of nocifensive behaviors that reflects inflammatory pain. The duration of the responses is reflective of the amount of pain. […] The same doses were then used in a chronic inflammatory pain assay (i.e. CFA).

[5] = tested on: CFA induced thermal hypersensitivity; assay: Complete Freund's Adjuvant (CFA) model of chronic inflammatory pain, thermal hypersensitivity; assay type: in vivo, mice
Experimental: The latency to paw withdrawal in response to radiate heat to the paw decreases after CFA, and II-1 reverses this hypersensitivity in a dose dependent manner, indicating a strong analgesic effect of II-1. […] CFA injection into the hind paw leads to long lasting (weeks) mechanical and thermal hypersensitivity of the hind paw that is reflective of chronic inflammatory pain states. Thermal hypersensitivity is assessed by applying a radiant heat source to the hind paw of the animal and measuring the time between application of the heat source and the withdrawal of the paw. In CFA treated animals, the withdrawal latencies are dramatically shortened, and reflective of thermal hypersensitivity (i.e. thermal pain responses). […] Two asterisks indicate statistical significance at the 0.01 level, three asterisks indicate statistical significance at the 0.001 level relative to CFA+vehicle. FIG. 7 compares the effects of exemplary compound II-1 on CFA mediated thermal hypersensitivity in wild type mice and in mice lacking Cav3.2 channels (45 minutes after administration of the compound). […] Cav3.2^-/- mice have compensatory mechanisms that lead to increased thermal hypersensitivity in response to CFA even though Cav3.2 channels are absent.

[6] = molecular target: T2, association of USP5 and Cav3.2 channels (Mus musculus, UniProt P56399); assay: Co-immunoprecipitation of USP5 with Cav3.2 from brain lysate; assay type: binding; details: 1 uM compound, whole brain lysates, n=5 (FIG. 4)
T2 construct: using whole brain lysates and probed for USP5; from tissue; host or cells: mouse whole brain homogenate/lysate
T2 sequence (P56399 1-858): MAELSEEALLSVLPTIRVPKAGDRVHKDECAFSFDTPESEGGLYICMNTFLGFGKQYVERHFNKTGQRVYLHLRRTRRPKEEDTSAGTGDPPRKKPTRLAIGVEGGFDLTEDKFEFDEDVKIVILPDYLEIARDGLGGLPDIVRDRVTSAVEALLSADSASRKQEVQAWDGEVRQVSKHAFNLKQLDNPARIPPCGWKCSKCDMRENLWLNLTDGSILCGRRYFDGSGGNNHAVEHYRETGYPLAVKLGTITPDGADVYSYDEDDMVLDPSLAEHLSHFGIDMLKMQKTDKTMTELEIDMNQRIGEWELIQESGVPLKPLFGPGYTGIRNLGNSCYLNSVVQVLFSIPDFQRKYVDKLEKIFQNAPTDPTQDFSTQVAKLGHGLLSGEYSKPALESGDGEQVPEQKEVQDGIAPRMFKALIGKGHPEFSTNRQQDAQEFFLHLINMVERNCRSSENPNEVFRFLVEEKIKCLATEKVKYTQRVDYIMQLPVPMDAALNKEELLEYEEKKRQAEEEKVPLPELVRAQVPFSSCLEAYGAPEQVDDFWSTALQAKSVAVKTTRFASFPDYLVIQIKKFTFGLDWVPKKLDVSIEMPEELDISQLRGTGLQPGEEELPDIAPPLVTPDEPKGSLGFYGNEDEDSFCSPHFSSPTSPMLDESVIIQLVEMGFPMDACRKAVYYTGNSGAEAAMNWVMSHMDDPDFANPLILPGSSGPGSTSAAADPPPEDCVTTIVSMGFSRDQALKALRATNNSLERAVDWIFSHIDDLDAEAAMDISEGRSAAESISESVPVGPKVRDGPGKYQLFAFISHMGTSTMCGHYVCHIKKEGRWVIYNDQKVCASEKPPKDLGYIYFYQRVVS
Experimental: FIG. 4 is a graph showing the results of the of immunoprecipitation assay with Cav3.2 channels and a rabbit 3.2 polyclonal antibody using whole brain lysates and probed for USP5 (n=5). Quantifications were normalized to bound USP5 to Cav3.2 IP/alpha-tubulin. 1 uM of exemplary compounds II-1 and II-2 were used in the incubation. 5 uM of a positive control compound was used in the incubation.
A co-immunoprecipitation assay was implemented as a secondary screen for actives derived from the compound library screen. Moause brain homogenate was prepared, and the tissue containing was incubated with a rabbit Cav3.2 polyclonal antibody to immunoprecipitate Cav3.2 channel complexes. The precipitates were run on a Western blot and probed with an antibody against USP5 (n=5). Band intensities for bound USP5 were quantified and normalized to alpha-tubulin (FIG. 4). 1 μM of exemplary compounds II-1 and II-2 were used in the incubation. 5 μM of a control compound identified in a previous library screen was used as a positive control.

[7] = tested on: CFA induced thermal hypersensitivity in Cav3.2-/- mice; assay: CFA thermal hypersensitivity in Cav3.2 null mice; assay type: in vivo; details: 45 minutes after administration (FIG. 7)
Experimental: FIG. 7 compares the effects of exemplary compound II-1 on CFA mediated thermal hypersensitivity in wild type mice and in mice lacking Cav3.2 channels (45 minutes after administration of the compound). […] Cav3.2^−/− mice have compensatory mechanisms that lead to increased thermal hypersensitivity in response to CFA even though Cav3.2 channels are absent.

SMILES | Percent Inhibition [1] [%] | further results
CC(C)CCC(CCC(C)C)NCC1SC(=S)NC1=O (stereo not drawn) [II-10] | 28 | –
CC(C)C(NCC1SC(=S)NC1=O)C(=O)O (stereo not drawn) [II-3] | 100 | –
O=c1c(O)c(-c2ccc(O)c(O)c2)oc2c(O)c(O)cc(O)c12 [gossypetin] | – | protection from pain in mice [2]: protect from diabetic, visceral, inflammatory and neuropathic pain in mice
O=C(O)CN(CC(=O)O)CC1SC(=S)NC1=O (stereo not drawn) [II-7] | 85 | –
O=C1NC(=S)SC1CNCCCO (stereo not drawn) [II-9] | 6 | –
CC(O)C(NCC1SC(=S)NC1=O)C(=O)O (stereo not drawn) [II-1] | 100 | deubiquitination of ubiquitin-rhodamine110-glycine by USP5 (fluorescence readout) [3]: does not mediate DUB inhibition; duration of nocifensive responses (paw licking, biting), phase I and phase II [4]: response time is shortened in a dose dependent manner; thermal paw withdrawal latency after CFA ([5]; mice, intrathecal delivery, dose response (FIG. 6)): shortened latencies are reversed in a dose dependent manner; thermal paw withdrawal latency after CFA, wild type mice ([5]; wild type Cav3.2+/+ mice, 45 minutes after administration (FIG. 7)): reversed the CFA-induced reduction in thermal paw withdrawal latencies; USP5 bound to Cav3.2 IP, normalized to alpha-tubulin [6]: disrupt the association of USP5 and Cav3.2 channels in neuronal tissue; dose-response of percent inhibition in the Cav3.2-USP5 ELISA ([1]; varying concentrations, fitted with the Hill equation (FIG. 9)): dose dependence of the effect; thermal paw withdrawal latency after CFA, Cav3.2 knockout mice [7]: no longer able to reverse CFA induced thermal hypersensitivity
O=C1NC(=S)SC1CNC1CCCCC1 (stereo not drawn) [II-12] | 82 | –
CC(CO)(CO)NCC1SC(=S)NC1=O (stereo not drawn) [II-2] | 100 | deubiquitination of ubiquitin-rhodamine110-glycine by USP5 (fluorescence readout) [3]: fail to inhibit deubiquitination; USP5 bound to Cav3.2 IP, normalized to alpha-tubulin [6]: disrupt the association of USP5 and Cav3.2 channels in neuronal tissue
CCC[C@H](NC(=O)/C(C#N)=C/c1cccc(Br)n1)c1ccccc1 [Degrasyn, reference compound] | – | deubiquitination of ubiquitin-rhodamine110-glycine by USP5 (fluorescence readout) [3]: inhibits this fluorescence signal
CC(C)CC(NCC1SC(=S)NC1=O)C(=O)O (stereo not drawn) [II-4] | 100 | –
Cc1ccc(C(=O)Nc2ccc(S(=O)(=O)O)c3cc(S(=O)(=O)O)cc(S(=O)(=O)O)c23)cc1NC(=O)c1cccc(NC(=O)Nc2cccc(C(=O)Nc3cc(C(=O)Nc4ccc(S(=O)(=O)O)c5cc(S(=O)(=O)O)cc(S(=O)(=O)O)c45)ccc3C)c2)c1 [suramin] | – | protection from pain in mice [2]: protect from diabetic, visceral, inflammatory and neuropathic pain in mice
CCC(C)C(NCC1SC(=S)NC1=O)C(=O)O (stereo not drawn) [II-5] | 86 | –
O=C(O)CCNCC1SC(=S)NC1=O (stereo not drawn) [II-8] | 82 | –
NCCCCC(NCC1SC(=S)NC1=O)C(=O)O (stereo not drawn) [II-6] | 87 | –
O=C1NC(=S)SC1CNC1(CCO)CCCCC1 (stereo not drawn) [II-11] | 75 | –

Reference: patent US20230364061A1, “THIAZOLIDINE DERIVATIVES FOR INHIBITING CAV3.2-USP5 INTERACTIONS” (Zymedyne Therapeutics Inc., priority 2020, published 2023)
